From US11110067B2 (THE BOARD OF REGENTS OF THE UNIVERSITY OF TEXAS SYSTEM, priority 2008, dated 2021)

Assays:
[1] = system: genetically heterogeneous mice; assay: Lifespan of mice fed test agents in the diet (Cohort 2005; rapamycin from 600 days of age); conditions: for Survival compared with controls: added to the diet at 4 months of age, enalapril 120 mg/kg food, CAPE 30 or 300 mg/kg food; for Effect size expressed as life expectancy at 600 days / Effect size expressed as mean lifespan: pooled data set
Text: Mice were produced at each of the three test sites by mating CB6F1 females with C3D2F1 males to produce a genetically heterogeneous population. […] Each test site enrolled approximately equal numbers of 19-21 day-old weanlings each month over a six month period, housing 3 males or 4 females/cage. Each site used diets that the manufacturer claimed were based on the NIH-31 standard for breeding cages and the period between weaning and the initiation of experimental diets, as follows: For breeding cages, UM used Purina 5008, UT used Teklad 7912, and TJL used Purina 5K52. For weanlings prior to 4 months of age, UM used Purina 5008, UT used Teklad 7912, and TJL used Purina 5LG6. Starting when 4 months old, mice in the Control, Enalapril, and CAPE groups received Purina 5LG6 at all three sites, without additives (control group) or with the test agent. […] The principal endpoint was age at death (for mice found dead at daily inspections) or age at euthanasia (for mice deemed unlikely to survive for more than an additional 48 h).
The Cohort 2005 study population, distributed almost equally among the three test sites, consisted initially of 1960 mice, of which 674 were assigned to the control group and 317 to 328 to each of the four treatment groups. Of these, 51 mice were removed from the study because of fighting (31 mice), accidental death (such as chip implantation or cage flooding; 13 mice), or because of technical error (error in gender assignment or diet selection; 7 mice). For survival analyses, mice were treated as alive at the date of their removal from the protocol, and lost to follow-up thereafter. These censored mice were not included in calculations of median longevity.
Mice were examined at least daily for signs of ill health, and were euthanized for humane reasons if they were so severely moribund that they were considered, by an experienced technician, unlikely to survive for more than an additional 48 hrs. […] The age at which a moribund mouse was euthanized was taken as the best available estimate of its natural lifespan. Mice found dead were also noted at each daily inspection.
TestDiet, Inc. (Richmond, Ind.) prepared batches of Purina 5LG6 food containing each of the test substances, as well as control diet batches, at intervals of approximately 120 days, and shipped each batch of food at the same time to each of the three test sites. Enalapril was purchased from Sigma (catalogue E6888-5G) and used at 120 mg per kg food; on the assumption that the average mouse weighs 30 gm and consumes 5 gm of food/day, this dose supplies 20 mg enalapril per kg body weight/day. CAPE, i.e. caffeic acid phenethyl ester, was purchased from Cayman (Ann Arbor, Mich.; Catalogue 70750), and used at either of two doses: the high dose was 300 mg/kg food (50 mg/kg body weight/day), and the low dose was 30 mg/kg food (5 mg/kg body weight/day).

[2] = system: phosphorylation of ribosomal protein S6 (Ser240/244), a substrate of S6 kinase 1; assay: Immunoblot of rpS6 phosphorylation in tissue lysates; format: in vivo, mouse; conditions: visceral white adipose tissue; fed from 270 to about 800 days of age
Experimental: Signal intensities for each immunoblot were captured using a Kodak Image Station, which were analysed using Kodak 1D image analysis software.

[3] = Body weight of rapamycin-fed mice; format: in vivo, mouse
[4] = system: Aβ / APP in brains of 3×Tg-AD mice; assay: APP Western blots, Aβ ELISA and immunohistochemistry in brain, 3xTg-AD mice; format: in vivo, mouse; conditions: ELISA
Experimental: (§1) Tissue was processed and analyzed as described previously 13, 25, 26 and is described in detail in Supplementary Information. Aβ and tau were measured using specific ELISAs.
3×Tg-AD mice were sacrificed by CO2 asphyxiation. The brains were extracted and cut in-half sagitally and tissue was processed as described (Oddo et al., 2008). The hAPP(J20) mice were euthanized by isoflurane overdose. Hemibrains were flash frozen. One hemibrain was homogeneized in liquid N2 while the other was used in immunohistochemical determinations. For Western blot analyses, proteins from both hAPP(J20) and 3×Tg-AD soluble fractions were resolved by SDS/PAGE (Invitrogen, Temecula, Calif.) under reducing conditions and transferred to a nitrocellulose or PVDF membrane. The membrane was incubated in a 5% solution of non-fat milk or in 5% BSA for 1 hour at 20° C. […] Aβ40 and Aβ42 levels were measured from the soluble and insoluble fractions using a sandwich ELISA protocol as described previously (Oddo et al., 2005). Aβ40 and Aβ42 in hAPP(J20) mice were quantitated in guanidine homogenates of Tg hAPP(J20) hemibrains as described (Galvan et al., 2006) using specific ELISA assays (Invitrogen, Carlsbad, Calif.). […]

HET3 mice = assay: Glucose tolerance on high fat diet; format: in vivo, mouse; conditions: HET3 mice fed a high fat diet
[5] = system: Aβ / APP in brains of hAPP(J20) mice; assay: APP Western blots and Aβ ELISA in brain, hAPP(J20) mice; format: in vivo, mouse
Experimental: as §1
3×Tg-AD mice were sacrificed by CO2 asphyxiation. The brains were extracted and cut in-half sagitally and tissue was processed as described (Oddo et al., 2008). The hAPP(J20) mice were euthanized by isoflurane overdose. Hemibrains were flash frozen. One hemibrain was homogeneized in liquid N2 while the other was used in immunohistochemical determinations. For Western blot analyses, proteins from both hAPP(J20) and 3×Tg-AD soluble fractions were resolved by SDS/PAGE (Invitrogen, Temecula, Calif.) under reducing conditions and transferred to a nitrocellulose or PVDF membrane. The membrane was incubated in a 5% solution of non-fat milk or in 5% BSA for 1 hour at 20° C. […] Aβ40 and Aβ42 levels were measured from the soluble and insoluble fractions using a sandwich ELISA protocol as described previously (Oddo et al., 2005). Aβ40 and Aβ42 in hAPP(J20) mice were quantitated in guanidine homogenates of Tg hAPP(J20) hemibrains as described (Galvan et al., 2006) using specific ELISA assays (Invitrogen, Carlsbad, Calif.).

[6] = Pong and Zaleska, 2003; cited from earlier work

O=C(/C=C/c1ccc(O)c(O)c1)OCCc1ccccc1 [CAPE, caffeic acid phenethyl ester]
Survival compared with controls [1]: did not differ from controls

CCOC(=O)[C@H](CCc1ccccc1)N[C@@H](C)C(=O)N1CCC[C@H]1C(=O)O [enalapril]
Survival compared with controls [1]: did not differ from controls

CO[C@H]1C[C@@H]2CC[C@@H](C)[C@@](O)(O2)C(=O)C(=O)N2CCCC[C@H]2C(=O)O[C@H]([C@H](C)C[C@@H]2CC[C@@H](O)[C@H](OC)C2)CC(=O)[C@H](C)/C=C(\C)[C@@H](O)[C@@H](OC)C(=O)[C@H](C)C[C@H](C)/C=C/C=C/C=C/1C [rapamycin, (3S,6R,7E,9R,10R,12R,14S,15E,17E,19E,21S,23S,26R,27R,34aS)-9,10,12,13,14,21,22,23,24,25,26,27,32,33,34,34a-hexadecahydro-9,27-dihydroxy-3-[(1R)-2-[(1S,3R,4R)-4-hydroxy-3-methoxycyclohexyl]-1-methylethyl]-10,21-dimethoxy-6,8,12,14,20,26-hexamethyl-23,27-epoxy-3H-pyrido[2,1-c][1,4]oxaazacyclohentria-contine-1,5,11,28,29 (4H,6H,31H)-pentone]
Increase of life expectancy at 600 days ([1]; females, TJL): 45%
Mean lifespan increase ([1]; females, TJL): 15%
Percentage increase of age at 90th percentile versus controls ([1]; females, TJL): 17%
% Live at the 90th percentile age of the joint distribution ([1]; females, TJL, age 1167 days): 22.9%
Number alive at the 90th percentile age ([1]; females, TJL, age 1167 days): 11
Number dead at the 90th percentile age ([1]; females, TJL, age 1167 days): 37
Increase of life expectancy at 600 days ([1]; females, UM): 48%
Mean lifespan increase ([1]; females, UM): 16%
Percentage increase of age at 90th percentile versus controls ([1]; females, UM): 14%
% Live at the 90th percentile age of the joint distribution ([1]; females, UM, age 1162 days): 27.1%
Number alive at the 90th percentile age ([1]; females, UM, age 1162 days): 13
Number dead at the 90th percentile age ([1]; females, UM, age 1162 days): 35
Increase of life expectancy at 600 days ([1]; females, UT): 22%
Mean lifespan increase ([1]; females, UT): 7%
Percentage increase of age at 90th percentile versus controls ([1]; females, UT): 8%
% Live at the 90th percentile age of the joint distribution ([1]; females, UT, age 1123 days): 14.6%
Number alive at the 90th percentile age ([1]; females, UT, age 1123 days): 7
Number dead at the 90th percentile age ([1]; females, UT, age 1123 days): 41
Percentage increase of age at 90th percentile versus controls ([1]; females, all sites): 14%
Effect size expressed as life expectancy at 600 days ([1]; females): 38%
Effect size expressed as mean lifespan ([1]; females): 13%
% Live at the 90th percentile age of the joint distribution ([1]; females, pooled sites): 21.5%
Number alive at the 90th percentile age ([1]; females, pooled sites): 31
Number dead at the 90th percentile age ([1]; females, pooled sites): 113
% Live at the 90th percentile age of the joint distribution ([1]; females, pooled sites, listed as Rapa): 21.5%
Increase of life expectancy at 600 days ([1]; males, TJL): 16%
Mean lifespan increase ([1]; males, TJL): 5%
Percentage increase of age at 90th percentile versus controls ([1]; males, TJL): 10%
% Live at the 90th percentile age of the joint distribution ([1]; males, TJL, age 1088 days): 19.3%
Number alive at the 90th percentile age ([1]; males, TJL, age 1088 days): 11
Number dead at the 90th percentile age ([1]; males, TJL, age 1088 days): 46
Increase of life expectancy at 600 days ([1]; males, UM): 23%
Mean lifespan increase ([1]; males, UM): 8%
Percentage increase of age at 90th percentile versus controls ([1]; males, UM): 4%
% Live at the 90th percentile age of the joint distribution ([1]; males, UM, age 1154 days): 17.6%
Number alive at the 90th percentile age ([1]; males, UM, age 1154 days): 9
Number dead at the 90th percentile age ([1]; males, UM, age 1154 days): 42
Increase of life expectancy at 600 days ([1]; males, UT): 52%
Mean lifespan increase ([1]; males, UT): 15%
Percentage increase of age at 90th percentile versus controls ([1]; males, UT): 16%
% Live at the 90th percentile age of the joint distribution ([1]; males, UT, age 1112 days): 23.3%
Number alive at the 90th percentile age ([1]; males, UT, age 1112 days): 14
Number dead at the 90th percentile age ([1]; males, UT, age 1112 days): 48
Percentage increase of age at 90th percentile versus controls ([1]; males, all sites): 9%
Effect size expressed as life expectancy at 600 days ([1]; males): 28%
Effect size expressed as mean lifespan ([1]; males): 9%
% Live at the 90th percentile age of the joint distribution ([1]; males, pooled sites): 20.2%
Number alive at the 90th percentile age ([1]; males, pooled sites): 34
Number dead at the 90th percentile age ([1]; males, pooled sites): 134
% Live at the 90th percentile age of the joint distribution ([1]; males, pooled sites, listed as Rapa): 20.2%
Reduction of levels of phosphorylated rpS6 [2]: 4-5 fold
Body weight ([3]; high fat diet, 12 weeks of feeding): No difference
Body weight ([3]; mouse, in vivo): No effect
Decrease of soluble Aβ42 levels [4]: 32.78±6.68%
Glucose tolerance (HET3 mice): causes glucose intolerance
Decrease of soluble Aβ42 levels [5]: 52.35±13.14%
Blood brain barrier passage [6]: readily crosses the blood brain barrier
